This is an account of results in patent publication US8293769B2, “CSF-1R inhibitors, compositions, and methods of use” (Novartis AG, priority 2008, dated 2012).

In test [1] the target is T1, cytoplasmic domain of the human CSF-1R (Homo sapiens, UniProt P07333).
T1 construct: Recombinant protein corresponding to the cytoplasmic domain of the human CSF-1R; purchased Invitrogen Corporation, Carlsbad, Calif; PV3249
T1 sequence (P07333 539-972 limits assumed): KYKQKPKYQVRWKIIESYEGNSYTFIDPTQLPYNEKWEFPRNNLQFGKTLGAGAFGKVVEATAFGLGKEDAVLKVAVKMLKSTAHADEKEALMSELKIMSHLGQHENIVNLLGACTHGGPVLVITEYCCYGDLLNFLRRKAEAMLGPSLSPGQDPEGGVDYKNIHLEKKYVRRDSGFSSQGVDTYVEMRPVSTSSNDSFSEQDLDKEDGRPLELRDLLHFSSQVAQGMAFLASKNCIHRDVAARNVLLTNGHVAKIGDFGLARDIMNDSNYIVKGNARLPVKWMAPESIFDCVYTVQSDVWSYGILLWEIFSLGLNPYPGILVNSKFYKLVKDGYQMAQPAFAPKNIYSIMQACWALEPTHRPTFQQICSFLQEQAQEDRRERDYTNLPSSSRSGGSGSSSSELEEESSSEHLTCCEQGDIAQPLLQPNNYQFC
Kind of test: In vitro kinase assay for CSF-1R (AlphaScreen). The test is classed as biochemical. The following applies: tested at about 1 μM; read-out: CSF1RK 1 percent inhibition. Summed up:
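Recombinant CSF-1R cytoplasmic domain (4 nM) phosphorylated biotinylated peptide (0.05 μM) at 1.0 μM ATP in HEPES with Mg2+/Mn2+, 2 h at room temperature, compounds from 25 μM in 3-fold steps. AlphaScreen anti-phosphotyrosine PT66 detection; IC50 by non-linear regression.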

In another test the target is T2, cKIT (Homo sapiens, UniProt P10721).
T2 construct: The kinase domain of cKIT was assayed in 50 mM Hepes; purchased Upstate 14-559
Kind of test: cKIT kinase in vitro biochemical assay (alphascreen). Conditions: tested at about 1 μM; read-out: CKIT percent inhibition.

A further test concerns the target T3, PDGFRb (Homo sapiens, UniProt P09619).
T3 construct: The kinase domain of PDGFRβ was assayed in 50 mM Hepes; purchased Invitrogen P3082
As to the kind of experiment: PDGFRb kinase in vitro biochemical assay (alphascreen). Conditions: tested at about 1 μM; read-out: PDGF RK BETA percent inhibition.

Test [2] relates to MNFS60 (murine AML cells). As to the kind of experiment: Cell viability assay in MCSF dependent MNFS60 cells (Cell Titer Glo). The format is cell-based. The following applies: Mus musculus; tested at about 1 μM; MCSF 10 ng/mL, 72 hrs; read-out: CPEC50 MNFS60MCSF percent inhibition. How it is done: Cell viability was assessed by Cell Titer Glo, Promega. MNFS60 (murine AML cells) were seeded in TC treated 96-well plates at a density of 5,000 cells per well in RPMI-1640, 10% FBS, and 1% Penicillin Streptomycin prior to addition of compound. Test compounds were serially diluted (3 fold) in DMSO to 500× the final concentration. For each concentration of test compound, 2 μl (500×) aliquots of compound or 100% DMSO (control) were diluted in 500 μl of culture medium that contained 2× final concentration of growth factor MCSF for 2× concentration and then diluted 1× on the cells. Final concentration of MCSF is 10 ng/mL. Cells were incubated for 72 hrs at 37° C., 5% CO2. After the incubation 100 μl Cell Titer Glo is added to each well to determine viable cells. The assay was performed according to the manufacturer's instruction (Promega Corporation, Madison, Wis. USA). Each experimental condition was performed in triplicate. Raw data was imported in Abase and EC50s calculated with XL-fit data analysis software: Relative light units of wells that contained cells without MCSF in the media and as a consequence didn't grow were defined as 100% inhibited.

The target of test [3] is T4, full-length human CSF-1R receptor (Homo sapiens, UniProt P07333).
T4 construct: transfected with the full-length human CSF-1R receptor cloned in house; expressed in transfected cells; host or cells: HEK293H (Invitrogen Cat. #11631017)
Kind of test: In vitro inhibition of CSF-1R receptor tyrosine phosphorylation in transfected HEK293H cells. Conditions: HEK293-H, tested at about 1 μM, 50 ng/mL MCSF, read-out: PCSF1R percent inhibition. The test is classed as cell-based. The method, then: To test the inhibition of CSF-1R receptor tyrosine phosphorylation, HEK293H purchased from Invitrogen Cat. #11631017 cells transfected with the full-length human CSF-1R receptor cloned in house into mammalian episomal transfection vector were incubated for 1 h with serial dilutions of compounds starting at 10 μM with 3 fold dilutions and then stimulated for 8 min with 50 ng/mL MCSF. After the supernatant was removed, the cells were lysed on ice with lysis buffer (150 mM NaCl, 20 mM Tris, pH 7.5, 1 mM EDTA, 1 mM EGTA, 1% Triton X-100 and NaF, protease and phosphatase inhibitors) and then shaken for 15-20 min at 4° C. The lysate was then transferred to total CSF-1R antibody coated 96-well plates that had already been blocked with 3% Blocker A from Mesoscale discovery (MSD) for 2 hours and washed afterwards. Lysates were incubated overnight at 4° C. and the plates were then washed 4× with MSD Tris Wash Buffer. The SULFO-TAG anti-pTyr antibody from MSD was diluted to 20 nM final in 1% Blocker A (MSD) solution and added to the washed plates and incubated for 1.5-2 h before addition of read buffer (MSD). The plates were read on the Sector 6000 instrument (MSD). Raw data was imported in Abase and EC50s calculated with XL-fit data analysis software.

T3 sequence (P09619 600-962 limits assumed): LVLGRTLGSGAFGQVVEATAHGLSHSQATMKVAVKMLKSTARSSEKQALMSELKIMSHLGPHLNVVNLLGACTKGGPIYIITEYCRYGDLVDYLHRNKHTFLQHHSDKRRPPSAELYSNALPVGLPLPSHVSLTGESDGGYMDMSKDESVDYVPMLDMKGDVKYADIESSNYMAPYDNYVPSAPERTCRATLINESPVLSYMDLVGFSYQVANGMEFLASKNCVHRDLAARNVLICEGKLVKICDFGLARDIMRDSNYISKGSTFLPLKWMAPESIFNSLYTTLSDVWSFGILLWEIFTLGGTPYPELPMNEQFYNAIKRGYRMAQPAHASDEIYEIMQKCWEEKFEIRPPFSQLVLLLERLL
T2 sequence (P10721 589-937 limits assumed): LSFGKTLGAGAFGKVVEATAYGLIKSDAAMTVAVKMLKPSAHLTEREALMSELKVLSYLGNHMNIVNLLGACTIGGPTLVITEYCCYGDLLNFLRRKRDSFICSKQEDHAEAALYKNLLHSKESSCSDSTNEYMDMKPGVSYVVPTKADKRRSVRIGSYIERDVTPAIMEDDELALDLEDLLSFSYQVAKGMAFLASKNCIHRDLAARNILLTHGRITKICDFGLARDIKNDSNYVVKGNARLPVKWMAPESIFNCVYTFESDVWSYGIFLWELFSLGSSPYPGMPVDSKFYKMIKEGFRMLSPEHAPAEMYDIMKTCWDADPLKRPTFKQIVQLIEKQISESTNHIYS
T4 sequence (P07333 20-972): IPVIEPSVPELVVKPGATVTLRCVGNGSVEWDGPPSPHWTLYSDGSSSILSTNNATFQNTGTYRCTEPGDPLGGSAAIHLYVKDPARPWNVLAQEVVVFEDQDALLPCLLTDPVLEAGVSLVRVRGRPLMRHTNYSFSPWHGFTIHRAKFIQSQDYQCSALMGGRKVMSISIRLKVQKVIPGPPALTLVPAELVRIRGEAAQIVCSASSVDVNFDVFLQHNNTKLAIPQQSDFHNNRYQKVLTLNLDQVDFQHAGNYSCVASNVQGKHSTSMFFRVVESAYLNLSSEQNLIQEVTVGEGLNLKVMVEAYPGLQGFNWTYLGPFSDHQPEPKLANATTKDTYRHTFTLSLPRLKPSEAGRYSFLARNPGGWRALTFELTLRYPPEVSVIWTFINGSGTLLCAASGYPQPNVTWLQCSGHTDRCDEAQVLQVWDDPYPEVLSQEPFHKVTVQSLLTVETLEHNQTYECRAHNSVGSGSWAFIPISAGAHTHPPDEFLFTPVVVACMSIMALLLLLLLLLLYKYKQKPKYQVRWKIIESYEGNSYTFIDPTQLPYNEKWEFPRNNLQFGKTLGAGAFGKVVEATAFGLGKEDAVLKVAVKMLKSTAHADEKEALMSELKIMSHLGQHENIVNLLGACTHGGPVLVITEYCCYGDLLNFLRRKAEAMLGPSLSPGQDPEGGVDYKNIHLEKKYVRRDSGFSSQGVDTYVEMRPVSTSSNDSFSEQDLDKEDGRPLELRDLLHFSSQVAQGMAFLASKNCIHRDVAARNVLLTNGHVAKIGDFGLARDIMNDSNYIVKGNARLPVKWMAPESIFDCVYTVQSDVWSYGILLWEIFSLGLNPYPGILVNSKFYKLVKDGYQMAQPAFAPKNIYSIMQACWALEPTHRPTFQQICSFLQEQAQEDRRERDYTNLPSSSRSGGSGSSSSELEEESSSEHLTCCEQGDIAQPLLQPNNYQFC

For the compound `O[C@@H]1CCCC[C@H]1Nc1nc2ccc(Oc3ccnc(-c4cccnc4)n3)cc2s1` [Compound 27, (1R,2R)-2-(6-(2-(pyridin-3-yl)pyrimidin-4-yloxy)benzo [d]thiazol-2-ylamino) cyclohexanol], the inhibition at 1 µM was 100% in test [1]; 20% at cKIT; 8% at PDGFRb; 54% in test [2]; 78% in test [3].

In the case of `O[C@@H]1CCCC[C@H]1Nc1nc2ccc(Oc3ccnc(-c4ccncc4)n3)cc2s1` [Compound 28, (1R,2R)-2-(6-(2-(pyridin-4-yl)pyrimidin-4-yloxy)benzo [d]thiazol-2-ylamino) cyclohexanol], the inhibition at 1 µM amounted to 100% in test [1]; 18% at cKIT; 25% at PDGFRb; 67% in test [2]; 88% in test [3].

`C[C@H](Nc1nc2ccc(Oc3ccnc(-c4cccnc4)n3)cc2s1)C1CCCCC1` [Compound 31, (S)-N-(1-cyclohexylethyl)-6-(2-(pyridin-3-yl)pyrimidin-4-yloxy)benzo[d] thiazol-2-amine]: the inhibition at 1 µM turned out to be 100% in test [1]; 29% at cKIT; 6% at PDGFRb; 58% in test [2]; 59% in test [3].

Consider `C[C@H](Nc1nc2ccc(Oc3ccnc(-c4ccncc4)n3)cc2s1)C1CCCCC1` [Compound 32, (S)-N-(1-cyclohexylethyl)-6-(2-(pyridin-4-yl)pyrimidin-4-yloxy)benzo[d] thiazol-2-amine], for which the inhibition at 1 µM in test [1] is 100%; at cKIT, 30%; at PDGFRb, 14%; in test [2], 58%; in test [3], 70%.

In the case of `O[C@@H]1CCCC[C@H]1Nc1nc2ccc(Oc3cncc(Br)c3)cc2s1` [Compound 45, (1R,2R)-2-(6-(5-bromopyridin-3-yloxy)benzo[d]thiazol-2-ylamino)cyclohexanol], the inhibition at 1 µM in test [1] amounted to 100%; at cKIT it was 60%; on PDGFRb it was 5%; in test [2] it was 96%; in test [3], 93%.

Consider `Cn1nccc1-c1cncc(Oc2ccc3nc(N[C@@H]4CCCC[C@H]4O)sc3c2)c1` [Compound 56, (1R,2R)-2-(6-(5-(1-methyl-1H-pyrazol-5-yl)pyridin-3-yloxy)benzo[d]thiazol-2-ylamino)cyclohexanol], for which the inhibition at 1 µM in test [1] was 100%; on cKIT, 43%; at PDGFRb, 10%; in test [2] it was 93%; in test [3] it was 96%.

In the case of `O[C@@H]1CCCC[C@H]1Nc1nc2ccc(Oc3cncc(-c4cccnc4)c3)cc2s1` [Compound 57, (1R,2R)-2-(6-(3,3′-bipyridin-5-yloxy)benzo[d]thiazol-2-ylamino)cyclohexanol], the inhibition at 1 µM worked out at 100% in test [1]; 45% on cKIT; 0% at PDGFRb; 96% in test [2]; 96% in test [3].

With `CCN(CC)CCn1cc(-c2cncc(Oc3ccc4nc(N[C@@H]5CCCC[C@H]5O)sc4c3)c2)cn1` [Compound 81, (1R,2R)-2-(6-(5-(1-(2-(diethylamino)ethyl)-1H-pyrazol-4-yl)pyridin-3-yloxy)benzo[d]thiazol-2-ylamino)cyclohexanol], the inhibition at 1 µM is 100% in test [1], 56% on cKIT, 0% at PDGFRb and 100% in test [2].

For the compound `O[C@@H]1CCCC[C@H]1Nc1nc2ccc(Oc3cncc(-c4cnccn4)c3)cc2s1` [Compound 84, (1R,2R)-2-(6-(5-(pyrazin-2-yl)pyridin-3-yloxy)benzo[d]thiazol-2-ylamnino) cyclohexanol], the inhibition at 1 µM was 100% in test [1], 99% on cKIT, 100% on PDGFRb and 100% in test [2].

For the compound `O[C@@H]1CCCC[C@H]1Nc1nc2ccc(Oc3cncc(C4=CCNCC4)c3)cc2s1` [Compound 85, (1R,2R)-2-(6-(5-(1,2,3,6-tetrahydropyridin-4-yl)pyridin-3-yloxy)benzo[d]thiazol-2-ylamino)cyclohexanol], the inhibition at 1 µM in test [1] stood at 96%; on cKIT, 13%; on PDGFRb it was 2%; in test [2], 13%.

`O[C@@H]1CCCC[C@H]1Nc1nc2ccc(Oc3cncc(-c4cnn(CCN5CCOCC5)c4)n3)cc2s1` [Compound 95, (1R,2R)-2-(6-(6-(1-(2-morpholinoethyl)-1H-pyrazol-4-yl)pyrazin-2-yloxy)benzo[d]thiazol-2-ylamino)cyclohexanol]: the inhibition at 1 µM is 100% in test [1], 18% at cKIT, 8% on PDGFRb and 47% in test [2].

On to `O[C@@H]1CCCC[C@H]1Nc1nc2ccc(Oc3cncc(-c4cccnc4)n3)cc2s1` [Compound 96, (1R,2R)-2-(6-(6-(pyridin-3-yl)pyrazin-2-yloxy)benzo[d]thiazol-2-ylamino) cyclohexanol], for which the inhibition at 1 µM in test [1] came out at 100%; at cKIT it was 23%; at PDGFRb it was 9%; in test [2], 32%.

As for `C[C@H](Nc1nc2ccc(Oc3ccc(NO)nc3)cc2s1)C1CCCCC1` [Compound 101, (S)—N-(1-cyclohexylethyl)-6-(6-(hydroxyamino)pyridin-3-yloxy)benzo[d]thiazol-2-amine], the inhibition at 1 µM in test [1] came to 100%; at cKIT it was 74%; at PDGFRb, 31%; in test [2], 58%.

On to `CN1CCN(c2ccc(-c3cc(Oc4ccc5nc(N[C@@H]6CCCC[C@H]6O)sc5c4)cnc3Cl)cn2)CC1` [Compound 103, (1R,2R)-2-(6-(2-chloro-6′-(4-methylpiperazin-1-yl)-3,3′-bipyridin-5-yloxy)benzo[d]thiazol-2-ylamino)cyclohexanol], for which the inhibition at 1 µM turned out to be 100% in test [1], 14% on cKIT, 9% at PDGFRb and 35% in test [2].

Regarding `O[C@@H]1CCCC[C@H]1Nc1nc2ccc(Oc3cccnc3)cc2s1` [Compound 110, (1R,2R)-2-(6-(pyridin-3-yloxy)benzo[d]thiazol-2-ylamino)cyclohexanol], the inhibition at 1 µM in test [1] stood at 100%; on cKIT, 10%; at PDGFRb, 14%; in test [2] it was 54%.

The inhibition is the drop in the measured response relative to a control, in per cent.
